Among the test systems are 786-0; A498; ACHN; BT-549; HOP-62; Hs-578T; M14; Malme-3M; NCI-H23; NCI-H460; OVCAR-3; OVCAR-4; PC-3; SK-MEL-2; SK-MEL-5; SK-OV-3; SNB-19; SW-620; T47D; UO-31.
Assay in all cases: NCI tumour cell line growth inhibition, 48 h

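The compound was tested at five concentrations on cells cultured in 96-well plates, with a 48-hour exposure period. GI50 is the concentration that inhibits growth by half.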 Calls of active or inactive are those of the source. Rule as the data show it: active = GI50 up to about 1.1 µM and inactive = higher. Where only a bound is given, the exact number is not on record here.

Take `CC(C)(C)c1ccc(C(C)(C)C)c(N2C(=O)[C@@H]3[C@@H]4C=C[C@@H](C4)[C@]3(C)C2=O)c1`: the GI50 was 17.4 µM (inactive) in the assay on 786-0; 16.5 µM (inactive) in the assay on A498; 21.5 µM (inactive) in the assay with ACHN; 22.4 µM (inactive) in the assay with BT-549; 44 µM (inactive) with HOP-62; 24.2 µM (inactive) in the assay on Hs-578T. Besides, the GI50 in the assay on M14 was 19.5 µM (inactive); with Malme-3M, 21.9 µM (inactive); in the assay with NCI-H23 it was 45.1 µM (inactive); in the assay on NCI-H460 it was 42 µM (inactive); in the assay on OVCAR-3 it was 13.9 µM (inactive); in the assay on OVCAR-4 it was 13.6 µM (inactive). The GI50 in the assay on PC-3 is 20.2 µM (inactive); in the assay with SK-MEL-2, 20.6 µM (inactive); with SK-MEL-5, 30.8 µM (inactive); in the assay on SK-OV-3, > 100 µM (inactive); with SNB-19, > 100 µM (inactive); in the assay with SW-620, 21.1 µM (inactive). Besides, the results for the GI50 with T47D and with UO-31 were 18.4 µM (inactive) and 29.3 µM (inactive), respectively.

As to `COC(=O)C(Cc1c[nH]c2ccccc12)NP(=O)(O)OCC1OC(n2cc(F)c(=O)[nH]c2=O)CC1O` (stereo not given), the GI50 with 786-0 was 28.2 µM (inactive); in the assay with A498 it was 0.964 µM (active); in the assay with ACHN, 6.89 µM (inactive); in the assay with BT-549 it was > 100 µM (inactive); in the assay on HOP-62, 25.9 µM (inactive); in the assay on Hs-578T it was > 100 µM (inactive). Moreover, the GI50 with M14 was 30.8 µM (inactive); in the assay on Malme-3M, > 100 µM (inactive); in the assay with NCI-H23, > 56 µM (inactive); in the assay on NCI-H460, 1.14 µM (inactive); in the assay on OVCAR-3, > 100 µM (inactive); in the assay with OVCAR-4, > 100 µM (inactive). Further, the GI50 in the assay with PC-3 was > 51.1 µM (inactive); in the assay on SK-MEL-2, > 100 µM (inactive); in the assay with SK-MEL-5, 77.3 µM (inactive); in the assay on SK-OV-3, > 92.5 µM (inactive); in the assay on SNB-19, 40.8 µM (inactive); in the assay with SW-620, > 100 µM (inactive). Further, the GI50 with T47D was > 32.5 µM (inactive); with UO-31, 23.2 µM (inactive).

For the molecule `COc1cc2c(NCCCCCCO[N+](=O)[O-])ncnc2c(OC)c1OC`, the GI50 in the assay with 786-0 is 26 µM (inactive); in the assay on A498, 18.1 µM (inactive); in the assay with ACHN, 32.9 µM (inactive); with BT-549 it was 23.1 µM (inactive); in the assay with HOP-62 it was 26.6 µM (inactive); in the assay on Hs-578T, 29.2 µM (inactive). Also, the GI50 is 16.9 µM (inactive) with M14; 13.1 µM (inactive) with Malme-3M; 19.1 µM (inactive) in the assay with NCI-H23; 22.3 µM (inactive) with NCI-H460; 23.1 µM (inactive) with OVCAR-3; 50.4 µM (inactive) in the assay with OVCAR-4. Moreover, the GI50 in the assay with PC-3 was 20.7 µM (inactive); with SK-MEL-2, 21.6 µM (inactive); with SK-MEL-5, 11.9 µM (inactive); in the assay with SK-OV-3 it was 49.3 µM (inactive); in the assay on SNB-19 it was 66.5 µM (inactive); in the assay on SW-620, 26.2 µM (inactive). The GI50 is 23.8 µM (inactive) in the assay with T47D and 7.93 µM (inactive) in the assay on UO-31.

As for `CCCCCCCC1C(C)c2c([nH]c3ccccc23)C2C(=O)N(c3ccc(OC)cc3)C(=O)C21` (stereo not given), the GI50 was 1.66 µM (inactive) in the assay on 786-0; 2.67 µM (inactive) in the assay on A498; 2.66 µM (inactive) with ACHN; 2.11 µM (inactive) with BT-549; 2.7 µM (inactive) in the assay with HOP-62; 2 µM (inactive) in the assay on Hs-578T. Further, the GI50 was 2.74 µM (inactive) with M14; > 4.86 µM (inactive) in the assay with Malme-3M; 2.39 µM (inactive) in the assay on NCI-H23; 1.87 µM (inactive) in the assay on NCI-H460; 2.48 µM (inactive) in the assay on OVCAR-3; 2.9 µM (inactive) with OVCAR-4. Moreover, the GI50 is 4.68 µM (inactive) in the assay with PC-3; > 6.59 µM (inactive) with SK-MEL-2; > 6.22 µM (inactive) in the assay on SK-MEL-5; 4.68 µM (inactive) in the assay on SK-OV-3; 3.31 µM (inactive) in the assay with SNB-19; 3.02 µM (inactive) in the assay on SW-620. Besides, the GI50 in the assay with T47D was 3.79 µM (inactive); in the assay with UO-31, 2.51 µM (inactive).

With `c1ccc2c(C3CCN(CCN4CCOCC4)C3)c[nH]c2c1` (stereo not given), the GI50 with 786-0, with A498, in the assay on ACHN, in the assay with BT-549, in the assay on HOP-62 and with Hs-578T was > 100 µM (inactive) throughout. The GI50 with M14, with Malme-3M, in the assay with NCI-H23, with NCI-H460, with OVCAR-3 and with OVCAR-4 was > 100 µM (inactive) in each case. The GI50 in the assay with PC-3, with SK-MEL-2, in the assay with SK-MEL-5, with SK-OV-3, in the assay with SNB-19 and in the assay on SW-620 was > 100 µM (inactive) in each case. In addition, the GI50 in the assay on T47D and in the assay on UO-31 was > 100 µM (inactive) each time.

On to `CC1CC[C@@]2(OC1)OC1C[C@H]3[C@@H]4CC[C@H]5CC(OC6OC(CO)C(OC7OC(CO)C(O)C(O)C7O)C(O)C6O)CCC5(C)[C@H]4CCC3(C)C1[C@@H]2C` (stereo not given in full), for which the GI50 was 8.26 µM (inactive) with 786-0; 8.65 µM (inactive) with A498; 7.53 µM (inactive) in the assay with ACHN; 4.86 µM (inactive) in the assay on BT-549; 6.03 µM (inactive) in the assay on HOP-62; 8.57 µM (inactive) in the assay on Hs-578T. The GI50 is 8.89 µM (inactive) in the assay with M14; 8.13 µM (inactive) in the assay with Malme-3M; 8.81 µM (inactive) in the assay with NCI-H23; 9.04 µM (inactive) in the assay with NCI-H460; 6.1 µM (inactive) with OVCAR-3; 8.81 µM (inactive) in the assay on OVCAR-4. Besides, the GI50 is 7.45 µM (inactive) in the assay on PC-3; 7.85 µM (inactive) in the assay on SK-MEL-2; 8.69 µM (inactive) in the assay with SK-MEL-5; 10.1 µM (inactive) with SK-OV-3; 9.04 µM (inactive) with SNB-19; 8.81 µM (inactive) in the assay with SW-620. Further, the GI50 in the assay on T47D is 9.31 µM (inactive); in the assay with UO-31, 11.1 µM (inactive).

For the molecule `O=C1c2ccccc2C2CNC1(O)c1ccccc12` (stereo not given), the GI50 with 786-0, in the assay with A498, with ACHN, with BT-549, with HOP-62 and in the assay with Hs-578T was > 100 µM (inactive) in each case. In addition, the GI50 in the assay with M14, in the assay on Malme-3M, in the assay on NCI-H23, with NCI-H460, with OVCAR-3 and in the assay with OVCAR-4 was > 100 µM (inactive) each time. In addition, the GI50 in the assay with PC-3, in the assay on SK-MEL-2, with SK-MEL-5, in the assay with SK-OV-3, in the assay on SNB-19 and in the assay with SW-620 was > 100 µM (inactive) each time. Besides, the GI50 in the assay with T47D and in the assay with UO-31 was > 100 µM (inactive) each time.

Turning to `Cn1cc(S(=O)(=O)NC(=O)Nc2ccc(Cl)cc2)c2ccccc21`, the GI50 in the assay with 786-0 was > 100 µM (inactive); in the assay on A498 it was > 100 µM (inactive); in the assay with ACHN it was 25.4 µM (inactive); with BT-549, > 100 µM (inactive); in the assay on HOP-62, 15.1 µM (inactive); in the assay on Hs-578T, > 100 µM (inactive). For the same molecule, the GI50 was > 100 µM (inactive) in the assay with M14; > 100 µM (inactive) with Malme-3M; > 100 µM (inactive) in the assay on NCI-H23; 57.4 µM (inactive) in the assay with NCI-H460; > 100 µM (inactive) in the assay with OVCAR-3; > 100 µM (inactive) in the assay on OVCAR-4. In addition, the GI50 is 43.9 µM (inactive) with PC-3; 54.7 µM (inactive) in the assay on SK-MEL-2; 73.5 µM (inactive) in the assay with SK-MEL-5; 55.5 µM (inactive) with SK-OV-3; > 100 µM (inactive) with SNB-19; 50.6 µM (inactive) with SW-620. In addition, the results for the GI50 in the assay on T47D and with UO-31 were 28.6 µM (inactive) and 44.8 µM (inactive), respectively.

Turning to `Nc1ccc2c(=O)cc(-c3cccs3)[nH]c2n1`, the GI50 was 3.45 µM (inactive) in the assay on 786-0; > 37.8 µM (inactive) in the assay with A498; 11.7 µM (inactive) with ACHN; 4.88 µM (inactive) in the assay on BT-549; 7.31 µM (inactive) in the assay on HOP-62; 3.66 µM (inactive) in the assay on Hs-578T. The GI50 was 1.6 µM (inactive) with M14; 8.18 µM (inactive) in the assay with Malme-3M; 2.89 µM (inactive) with NCI-H23; 2.77 µM (inactive) in the assay with NCI-H460; 3.32 µM (inactive) in the assay with OVCAR-3; > 35.7 µM (inactive) in the assay on OVCAR-4. Besides, the GI50 in the assay on PC-3 is 1.74 µM (inactive); in the assay with SK-MEL-2, 6.32 µM (inactive); with SK-MEL-5, 1.03 µM (active); in the assay with SK-OV-3, 5.25 µM (inactive); with SNB-19, 7.38 µM (inactive); in the assay with SW-620 it was 1.01 µM (active). Besides, the values for the GI50 with T47D and in the assay on UO-31 were 3.13 µM (inactive) and 3.54 µM (inactive), respectively.

With `Cc1c(-c2ccccc2)[nH]n(C2=NCCN2)c1=O`, the GI50 with 786-0, in the assay on A498, in the assay on ACHN, with BT-549, with HOP-62 and in the assay with Hs-578T was > 100 µM (inactive) in each case. Further, the GI50 with M14 was > 100 µM (inactive); in the assay with Malme-3M, 41 µM (inactive); with NCI-H23 it was > 100 µM (inactive); in the assay on NCI-H460 it was 78.7 µM (inactive); in the assay with OVCAR-3, > 100 µM (inactive); in the assay on OVCAR-4, > 100 µM (inactive). Besides, the GI50 with PC-3, in the assay on SK-MEL-2, in the assay with SK-MEL-5, in the assay with SK-OV-3, with SNB-19 and in the assay with SW-620 was > 100 µM (inactive) each time. For the same molecule, the values for the GI50 with T47D and in the assay on UO-31 were > 100 µM (inactive) and 85.1 µM (inactive), respectively.

Values taken from ChEMBL document CHEMBL1201862, “PubChem BioAssay data set” (2004).
